Results reported in patent US20250302306A1, “TUMOR TARGETING PROBE FOR IMAGE GUIDED SURGICAL METHODS” (priority 2021, published 2025).

Key:
[1] = ICG as used in clinical practice; cited from earlier work
[2] = system: multiple breast cancer animal models
TNBC PDX tumors [3] = experiment: Tumor recurrence follow-up after image-guided surgery in PDX model; format: in vivo, NSG mice
Procedure: Each agent was injected i.v. (tail vein) with the corresponding compound at the equivalent of ICG-p28 0.5 mg/kg-b.w. Twenty-four hours after injection, all surgical procedures were started under sterile conditions. Following anesthesia administration, the PDE imaging system was used to monitor NIR fluorescence throughout the entire surgical procedure. Tumors with a 2-mm safety margin and the surrounding mammary tissues at the 6 and 12 o'clock positions were removed in real time under guidance of the PDE imaging system. […] Following tumor excision, the skin incisions were closed using a nylon suture, and the mice were returned to their cages. After tumor resection, the mice were kept in their cages for an additional four weeks and monitored for tumor recurrence. Tumor recurrence was monitored by palpitation of the surgical area. Four weeks after surgery, the mice were evaluated to determine whether any of the tumors had recurred due to remnant positive margins at the resection site.

MDA-MB-231-iRFP tumors = experiment: Tumor margin assessment: colocalization with tumor marker iRFP, ex vivo Odyssey scan; format: in vivo, athymic mice; conditions: 0.5 mg/kg i.v., 24 hr
Procedure: In FIG. 3B, Athymic mice bearing MDA-MB-231-iRFP tumors were injected i.v. with either ICG-p28 or ICG alone at 0.5 mg/kg. Twenty-four hours after injection, representative ex vivo images of the tumour and surrounding soft tissues for the ICG-p28 group (top row) and the ICG alone group (bottom row) were taken with an Odyssey scanner. The dotted line in the images indicates the outer edge of the soft tissue. iRFP (red: 700 nm); ICG-p28 or ICG (green: 800 nm); and colocalization (yellow-orange). In FIG. 3C, Concordance rate of the fluorescent signal in each group [the ICG-p28 group (n=10) and the ICG alone group (n=5)]; **: P<0.01.
ICG-p28 or ICG alone at 0.5 mg/kg was injected i.v. into athymic mice inoculated with MDA-MB-231-iRFP cells; 24 hr later, the xenografted tumors and surrounding tissues were removed.
MDA-MB-231-iRFP cells (1.0×10^6 cells in 0.1 ml PBS) were inoculated s.c. into the right back of mice. Once mice developed tumors (˜200 mm^3), they were injected i.v. with ICG-p28 or ICG at 0.5 mg/kg-b.w. Twenty-four hours after injection, tumors and the surrounding tissue were resected. Specimens were imaged ex vivo with an Odyssey scanner with the 700 nm channel for iRFP and the 800 nm channel for ICG-p28 or ICG alone. The area measurements were performed using ImageJ. The mean±SD values were calculated.

[4] = system: MDA-MB-231 or IOWA-IT orthotopic MFP xenograft tumors; experiment: Intraoperative imaging of orthotopic xenografts, tumor recurrence follow-up
[5] = system: MDA-MB-231 human breast cancer tumors; experiment: In vivo kinetic analysis: tumor/normal tissue NIR signal ratio (TBR); parameters: species or system athymic mice
Procedure: Since fluorescent imaging techniques rely on the concentration of each contrast agent, the optimum dose range for ICG-p28 in mice with MDA-MB-231 human breast cancer tumors was determined with the PDE unit. Each mouse was injected i.v. with ICG-p28 or ICG alone at 0.2-1.0 mg/kg (˜50 to 250 nM). The mice were imaged at various time points (6-72 hr), and the ratio of the NIR signal intensity of the tumor tissue and normal tissue (thigh) was calculated.
ICG-p28 or ICG alone was injected intravenously (i.v.) (tail vein) at 0.2, 0.5, or 1 mg/kg-b.w. Animals were imaged using an Odyssey scanner (LI-COR Biosciences) at 6-72 hr post i.v. administration. The tumor background ratio (TBR) was determined using ImageJ software (National Institutes of Health), where a region of interest (ROI) was drawn over the whole tumor and a background ROI was drawn over adjacent tissue. An ROI was manually generated around each tumor (800 nm channel).

TNBC PDX tumors [6] = experiment: Detection of residual cancer cells in the tumor margin by huAlu PCR; format: in vivo, NSG mice; conditions: equivalent of ICG-p28 0.5 mg/kg i.v., margins at 6 and 12 o'clock
Procedure: During image-guided surgery, tumors with a 2-mm safety margin and the surrounding mammary tissues at the 6 and 12 o'clock positions were removed in real time under guidance of the PDE imaging system (FIG. 6A). These samples were collected to undergo huAlu PCR as well as traditional histological analyses.
Each agent was injected i.v. (tail vein) with the corresponding compound at the equivalent of ICG-p28 0.5 mg/kg-b.w. Twenty-four hours after injection, all surgical procedures were started under sterile conditions. Following anesthesia administration, the PDE imaging system was used to monitor NIR fluorescence throughout the entire surgical procedure. […] After tumor resection, the mice were kept in their cages for an additional four weeks and monitored for tumor recurrence. Tumor recurrence was monitored by palpitation of the surgical area. Four weeks after surgery, the mice were evaluated to determine whether any of the tumors had recurred due to remnant positive margins at the resection site.
A quantitative analysis using human-specific Alu sequence (huAlu) was performed on samples collected from the margins. […] We standardized the quantitative detection of huAlu in resected tumors and surrounding margin tissues according to previously published methods. […] The mean±SD values were calculated.

TNBC PDX tumors [7] = experiment: Histological analysis (H&E, Ki-67) of tumor margin samples; format: in vivo, NSG mice; conditions: H&E and Ki67 staining of margin samples
Procedure: We next performed traditional histological analyses with H&E and proliferative marker Ki67 staining on the set of tumor margin samples that were used for the Alu PCR assays.
Resected tissues were placed in containers prefilled with buffered 3.7% formalin (Anatech) and fixed for 24 hr. Formalin was replaced with 70% ethanol following fixation. Samples were paraffin-embedded, and blocks were cut into 4 μm-thick sections and mounted onto slides. H&E- and Ki-67-stained slides were analyzed by a pathologist blinded to the experimental groups and surgical resection results. The pathologist was responsible for determining a tumor's presence, margin status, and general characteristics of resected tissues.

[8] = system: advanced solid tumors; recurrent and refractory CNS tumors; conditions: human, in vivo; cited from earlier work

| Molecule | half-life [1] | tumor recurrence rate overall ([2]; multiple models combined, N of 24) | average recurrent tumor volume overall ([2]; multiple subtypes of breast cancer combined) | tumor recurrence rate for the surgical site (TNBC PDX tumors [3]; four weeks after image-guided surgery) | average volume of the recurrent tumors (TNBC PDX tumors [3]; four weeks after surgical resection) | concordance rate of 700 and 800 nm NIR signals (MDA-MB-231-iRFP tumors) | adverse events related to administration during tumor removal ([4]; 0.5 mg/kg i.v.) | tumor recurrence at the surgical sites ([4]; 0.5 mg/kg i.v., four weeks after tumor resection) | average volume of the recurrent tumors ([4]; four weeks after tumor resection) | tumor/normal tissue ratio of NIR signal intensity ([5]; 0.2-1.0 mg/kg i.v., 24 hr, tumor vs thigh) | TBR ([5]; ICG alone, tumor site not distinguishable) | log (huAlu DNA/mGAPDH DNA) in surrounding tissues (TNBC PDX tumors [6]) | positive margin rate (TNBC PDX tumors [7]) | adverse effects, toxicity or immunogenicity [8] |
| --- | --- | --- | --- | --- | --- | --- | --- | --- | --- | --- | --- | --- | --- | --- |
| CC1(C)C(/C=C/C=C/C=C/C=C2\N(CCCCS(=O)(=O)O)c3ccc4ccccc4c3C2(C)C)=[N+](CCCCS(=O)(=O)[O-])c2ccc3ccccc3c21 [ICG alone, indocyanine green] | 2 to 4 min | 33% | 1,188 mm^3 | 50.0% | 1,952 mm^3 | 12% | no apparent adverse events | 25.0% | 423 mm3 | ~1 | ~1.1 | −0.9 | 19% | – |
| p28: peptide derived from Pseudomonas aeruginosa azurin, amino acids 50-77 (SEQ ID NO: 5) | – | – | – | – | – | – | – | – | – | – | – | – | – | no significant adverse effects, toxicity or immunogenicity |
